# Test results taken from patent US11952364B2, “TRK inhibitors useful as anticancer drugs” (TYLIGAND BIOSCIENCE (SHANGHAI) LIMITED, priority 2018, dated 2024).
# Where two headings read alike, the source gives them in different places.
# Legend:
# [1] = Solubility in simulated fluids and PBS; format: physicochemical; details: for solubility: thermodynamic from solid, 25° C.
# From the text: According to the well-known standard methods conventional in the art for solubility determination, for example those described in Kems, Edward H. and Di Li (2008). Drug-like Properties: Concepts, Structure Design and Methods: from ADME to Toxicity Optimization. San Diego: Academic Press), the solubility properties of the compounds of the present disclosure were investigated as follows, in testing systems of FaSSGF (pH 1.6) (Biorelevant, Fasted State Simulated gastric fluids), FeSSIF (pH 5.8) (Biorelevant, Fed State Simulated Intestinal Fluid), FaSSIF (pH 6.5) (Biorelevant, Fasted State Simulated Intestinal Fluid) and PBS buffer (Hyclone, Cat No. SH30256.01B).
# Accurately weighed ˜1 mg of test compound dry powder was charged into a glass bottle, and added an appropriate volume of each of the above test system solutions, to prepare a 4 mg/mL working solution. The sample bottle was placed on a shaker at room temperature (25° C.) and shook at 1000 rpm for 1 hour, then stood overnight for equilibrium. All samples were centrifuged at 12000 rpm at 25° C. for 10 minutes. Solutions of different concentrations for each compound were prepared in DMSO as the standard solutions. 580 μL of 20% (v/v) acetonitrile aqueous solution (containing 40 ng/mL tolbutamide as internal standard) was added into each well of three microplates, and mixed uniformly. 20 μL of 4 mg/mL working solution or standard solution was added to the wells of the first microplate and mixed uniformly, from which 20 μL was taken and added to the corresponding well of the second microplate, and mixed uniformly, from which again 20 μL was taken from each well and added to the corresponding wells of the third microplate, and mixed uniformly. Mass spectrometry was adopted to analyze the samples (LC-MS/MS-014, API4000), a standard curve was developed based on the concentrations of the standard solutions, and the solubility of the test compound was calculated.
# [2] = Metabolic stability in liver microsomes; format: in vitro ADME; details: pH 7.4; for half-life at 1 µM: read-out: T½
# From the text: (§1) According to standard methods conventional in the art for in vitro metabolic stability studies, for example those protocols described in Kems, Edward H. and Di Li (2008). Drug-like Properties: Concepts. Structure Design and Methods: from ADME to Toxicity Optimization. San Diego: Academic Press; Di, Li et al., Optimization of a Higher Throughput Microsomal Stability Screening Assay for Profiling Drug Discovery Candidates, J. Biomol. Screen. 2003, 8(4), 453., the metabolic stability test in liver microsomes of the present compound was performed analogously as follows.
# (§2) The in vitro metabolic stability of the compound in 5 species (mouse, rat, dog, monkey, and human) was evaluated by liver microsomal stability test. 0.1M potassium phosphate buffer solution (pH 7.4, containing 1.0 mM EDTA) was prepared. The test compound and the control compound were prepared into a 10 mM DMSO solution, and then 10 μL of the 10 mM DMSO compound solution was added to 190 μL of acetonitrile to prepare a 500 μM compound solution. Liver microsomes (Sekisui XenoTech, LLC., human liver microsomes, cat. #H0610; Beagle dog liver microsomes, cat. #D1000; cynomolgus monkey liver microsomes, cat. #P2073; rat liver microsomes, cat. #R1073; mouse Liver microsomes, cat. #M1000) were taken and slowly melted on ice, then 18.75 μL of the liver microsome solution (20 mg/mL) and 1.5 μL of 500 μM compound solution were added to 479.75 μL of 0.1M potassium phosphate buffer solution to prepare a 0.75 mg/mL liver microsome working solution with a concentration of 1.5 μM compound. 6 mM NADPH (SIGMA, cat. #V900362) aqueous solution was prepared. 0.2 mL 2 mg/mL internal standard stock solution (imipramine solution in acetonitrile) was added to 1000 mL acetonitrile (SIGMA, cat. #271004) to prepare the reaction stop solution and stored at 4° C.
# Six deep-well plates were labeled as T0, T5, T15, T30, T45 and NCF60 (negative control, without NADPH). 30 μL of […] control compound or test compound solution in 0.75 mg/mL liver microsome working solution was added to each well of the corresponding plates. After being sealed with film, all the microplates were placed in a 37° C. water bath to preheat for 5 minutes, and 6 mM NADPH solution was placed in a 37° C. water bath to preheat for 5 minutes. Then 15 μL of NADPH solution was added to each cell successively in reverse time order, that is, first adding the T45 plate, 15 minutes later the T30 plate, 15 minutes later again the T15 plate, and 10 minutes later gain the T5 plate. NCF60 plate was not added with NADPH but 15 μL of deionized water. At this time, to the TO plate were added 135 μL of ice-cooled reaction stop solution and 15 μL of NADPH solution. By the end of the reaction, 135 μL of ice-precooled reaction stop solution was added successively to each well of the T5, T15, T30, and T45 plates. All samples were centrifuged at 4° C. at 600 rpm for 10 minutes, and then at 5594 g for 15 minutes (Thermo Multifugex 3R). Six 96-well plates were respectively labeled and added 50 μL of ultrapure water (Millipore, ZMQS50F01) to each well, then 50 μL of the centrifuged supernatant was added to the corresponding well of the corresponding plate, for LC-MS/MS-014 (API4000), UPLC-MS/MS-11 (API4000), LC-MS/MS-034 (API-6500+) analysis. The concentration (C0) of the test compound at TO time point was taken as 100%, and the concentrations at other incubation time points were converted into residue percentages.
# (§3) The natural logarithm of the residue percentage at each time point was subjected to linearly regression as a factor of incubation time to obtain Slope k, and then the liver microsome clearance rate (CLint^mic) and in vitro half-life (T½) were calculated according to the following formula: […]
# [3] = Metabolic stability in liver microsomes; format: in vitro ADME, cynomolgus monkey; details: pH 7.4, monkey liver microsomes; for half-life at 1 µM: read-out: T½
# From the text: as §1, §2
# Six deep-well plates were labeled as T0, T5, T15, T30, T45 and NCF60 (negative control, without NADPH). 30 μL of […] control compound or test compound solution in 0.75 mg/mL liver microsome working solution was added to each well of the corresponding plates. After being sealed with film, all the microplates were placed in a 37° C. water bath to preheat for 5 minutes, and 6 mM NADPH solution was placed in a 37° C. water bath to preheat for 5 minutes. Then 15 μL of NADPH solution was added to each cell successively in reverse time order, that is, first adding the T45 plate, 15 minutes later the T30 plate, 15 minutes later again the T15 plate, and 10 minutes later gain the T5 plate. […]
# as §3
# [4] = PBS buffer, aqueous buffer, PBS pH 7.4, read-out: Solubility PBS (pH 7.4)
# [5] = fassgf or other biorelevant, FaSSGF pH 1.6, read-out: Solubility FaSSGF (pH 1.6)
# [6] = FaSSIF pH 6.5, read-out: Solubility FaSSIF (pH 6.5)
# [7] = FeSSIF pH 5.8, read-out: Solubility FeSSEF (pH 5.8)
Structure (SMILES),"solubility [1, 4]","solubility [1, 5]",solubility compared with Merestinib ([1]; statement in words),"solubility [1, 6]","solubility [1, 7]","CLint scaled at 1 µM ([2]; Beagle, dog liver microsomes)","half-life at 1 µM ([2]; Beagle, dog liver microsomes)",CLint scaled at 1 µM ([2]; human liver microsomes),half-life at 1 µM ([2]; human liver microsomes),CLint scaled at 1 µM ([2]; mouse liver microsomes),half-life at 1 µM ([2]; mouse liver microsomes),CLint scaled at 1 µM ([2]; rat liver microsomes),half-life at 1 µM ([2]; rat liver microsomes),CLint scaled at 1 µM [3],half-life at 1 µM [3]
"COc1ccc(C(=O)Nc2ccc(Oc3cc4cnn(C)c4cc3-c3cn[nH]c3)c(F)c2)c(=O)n1-c1ccc(F)cc1 [Example 12, N-(3-fluoro-4-(1-methyl-6-(1H-pyrazol-4-yl)-1H-indazol-5-yloxy)phenyl)-1-(4-fluorophenyl)-6-methoxy-2-oxo-1,2-dihydropyridine-3-carboxamide]",0.01 µg/mL,27.7 µg/mL,significantly improved solubility as compared with Merestinib,5.47 µg/mL,53.3 µg/mL,46.5 mL/min/kg,74.3 min,6.03 mL/min/kg,288 min,63.3 mL/min/kg,39.2 min,74.4 mL/min/kg,73.4 min,36.2 mL/min/kg,56 min
"Cc1ccc(C(=O)Nc2ccc(Oc3cc4cnn(C)c4cc3-c3cn[nH]c3)c(F)c2)c(=O)n1-c1ccc(F)cc1 [Merestinib, reference compound]",0.02 µg/mL,19.3 µg/mL,,3.07 µg/mL,33.7 µg/mL,38.4 mL/min/kg,89.9 min,22 mL/min/kg,79 min,90.3 mL/min/kg,27.5 min,105 mL/min/kg,52 min,81 mL/min/kg,25 min
